In PubChem BioAssay (NCI):
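In this assay, cells in 96-well plates receive the compound at five concentrations for 48 hours. Endpoints are linearly interpolated between the surrounding concentrations. GI50 marks 50% less growth. TGI marks complete inhibition of growth.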

Assays:
Test in all cases: inhibition of tumour cell growth, NCI panel, 48 h
[1] = tested on: PC-3 prostate
[2] = tested on: DU-145 prostate
[3] = tested on: HCT-15 colon
[4] = tested on: NCI/ADR-RES ovarian
[5] = tested on: HS 578T breast
[6] = tested on: CCRF-CEM leukemia
[7] = tested on: 786-0 renal
[8] = tested on: LOX IMVI melanoma
[9] = tested on: K-562 leukemia
[10] = tested on: BT-549 breast
[11] = tested on: TK-10 renal
[12] = tested on: UACC-62 melanoma
[13] = tested on: M14 melanoma
[14] = tested on: A549 NSCLC
[15] = tested on: COLO 205 colon
[16] = tested on: IGROV1 ovarian
[17] = tested on: NCI-H226 lung
[18] = tested on: SK-MEL-2 melanoma
[19] = tested on: MALME-3M melanoma
[20] = tested on: OVCAR-4 ovarian
[21] = tested on: HCT-116 colon
[22] = tested on: EKVX NSCLC
[23] = tested on: SN12C renal
[24] = tested on: UACC-257 melanoma
[25] = tested on: NCI-H23 lung
[26] = tested on: HL-60(TB) leukemia
[27] = tested on: SK-OV-3 ovarian
[28] = tested on: OVCAR-8 ovarian
[29] = tested on: SW-620 colon
[30] = tested on: HOP-62 NSCLC
[31] = tested on: SF-539 CNS
[32] = tested on: NCI-H522 lung
[33] = tested on: CAKI-1 renal
[34] = tested on: UO-31 renal
[35] = tested on: HT29 colon
[36] = tested on: MCF7 breast
[37] = tested on: MOLT-4 leukemia
[38] = tested on: SR leukemia
[39] = tested on: SF-295 CNS
[40] = tested on: SF-268 CNS
[41] = tested on: ACHN renal
[42] = tested on: RPMI-8226 leukemia
[43] = tested on: NCI-H460 lung
[44] = tested on: SK-MEL-28 melanoma
[45] = tested on: T-47D breast
[46] = tested on: RXF 393 renal
[47] = tested on: U251 CNS
[48] = tested on: SK-MEL-5 melanoma
[49] = tested on: MDA-MB-231 breast
[50] = tested on: HCC-2998 colon
[51] = tested on: OVCAR-5 ovarian
[52] = tested on: SNB-75 CNS
[53] = tested on: A498 renal
[54] = tested on: MDA-MB-435
[55] = tested on: HOP-92 NSCLC
[56] = tested on: OVCAR-3 ovarian
[57] = tested on: KM12 colon
[58] = tested on: SNB-19 CNS

Question: Which results are given for COP(=O)(Cc1ccccc1)Cc1ccccc1?
Answer: TGI [1]: > 100 µM; TGI [2]: > 100 µM; TGI [3]: > 100 µM; TGI [4]: > 100 µM; TGI [5]: > 100 µM; TGI [6]: > 100 µM; TGI [7]: > 100 µM; TGI [8]: > 100 µM; TGI [9]: > 100 µM; TGI [10]: > 100 µM; TGI [11]: > 100 µM; TGI [12]: > 100 µM; TGI [13]: > 100 µM; TGI [14]: > 100 µM; TGI [15]: > 100 µM; TGI [16]: > 100 µM; TGI [17]: > 100 µM; TGI [18]: > 100 µM; TGI [19]: > 100 µM; TGI [20]: > 100 µM; TGI [21]: > 100 µM; TGI [22]: > 100 µM; TGI [23]: > 100 µM; TGI [24]: > 100 µM; TGI [25]: > 100 µM; TGI [26]: > 100 µM; TGI [27]: > 100 µM; TGI [28]: > 100 µM; TGI [29]: > 100 µM; TGI [30]: > 100 µM; TGI [31]: > 100 µM; TGI [32]: > 100 µM; TGI [33]: > 100 µM; TGI [34]: > 100 µM; TGI [35]: > 100 µM; TGI [36]: > 100 µM; TGI [37]: > 100 µM; TGI [38]: > 100 µM; TGI [39]: > 100 µM; TGI [40]: > 100 µM; TGI [41]: > 100 µM; TGI [42]: > 100 µM; TGI [43]: > 100 µM; TGI [44]: > 100 µM; TGI [45]: > 100 µM; TGI [46]: > 100 µM; TGI [47]: > 100 µM; TGI [48]: > 100 µM; TGI [49]: > 100 µM; TGI [50]: > 100 µM; TGI [51]: > 100 µM; TGI [52]: > 100 µM

Question: How did the TGI [53] turn out when COc1cc(/C=C2/SC(c3ccccc3)N(c3ccccc3)C2=O)cc(OC)c1OC (stereo not drawn) was run?
Answer: > 100 µM

Question: And the TGI [2]?
Answer: > 100 µM

Question: What about the TGI [3] of the same molecule?
Answer: > 100 µM

Question: And the TGI [4]?
Answer: > 100 µM

Question: What about the TGI [5] of the same molecule?
Answer: > 100 µM

Question: What about the TGI [6] of the same molecule?
Answer: 42.2 µM

Question: What about the TGI [7] of the same molecule?
Answer: > 100 µM

Question: And the TGI [8]?
Answer: > 100 µM

Question: What about the TGI [54] of the same molecule?
Answer: > 100 µM

Question: And the TGI [9]?
Answer: > 100 µM

Question: What about the TGI [10] of the same molecule?
Answer: > 100 µM

Question: And the TGI [11]?
Answer: > 100 µM

Question: What about the TGI [12] of the same molecule?
Answer: > 100 µM

Question: What about the TGI [13] of the same molecule?
Answer: > 100 µM

Question: And the TGI [55]?
Answer: > 100 µM

Question: What about the TGI [14] of the same molecule?
Answer: > 100 µM

Question: What about the TGI [15] of the same molecule?
Answer: > 100 µM

Question: And the TGI [17]?
Answer: > 100 µM

Question: And the TGI [18]?
Answer: > 100 µM

Question: What about the TGI [56] of the same molecule?
Answer: > 100 µM

Question: What about the TGI [19] of the same molecule?
Answer: > 100 µM

Question: What about the TGI [20] of the same molecule?
Answer: > 100 µM

Question: And the TGI [21]?
Answer: > 100 µM

Question: And the TGI [22]?
Answer: > 100 µM

Question: What about the TGI [23] of the same molecule?
Answer: > 100 µM

Question: What about the TGI [24] of the same molecule?
Answer: > 100 µM

Question: And the TGI [25]?
Answer: > 100 µM

Question: What about the TGI [26] of the same molecule?
Answer: > 100 µM

Question: What about the TGI [27] of the same molecule?
Answer: > 100 µM

Question: And the TGI [28]?
Answer: > 100 µM

Question: What about the TGI [29] of the same molecule?
Answer: > 100 µM

Question: What about the TGI [30] of the same molecule?
Answer: > 100 µM

Question: What about the TGI [31] of the same molecule?
Answer: > 100 µM

Question: What about the TGI [32] of the same molecule?
Answer: > 100 µM

Question: And the TGI [57]?
Answer: > 100 µM

Question: What about the TGI [33] of the same molecule?
Answer: > 100 µM

Question: What about the TGI [34] of the same molecule?
Answer: > 100 µM

Question: And the TGI [36]?
Answer: > 100 µM

Question: What about the TGI [37] of the same molecule?
Answer: > 100 µM

Question: What about the TGI [38] of the same molecule?
Answer: > 100 µM

Question: What about the TGI [39] of the same molecule?
Answer: > 100 µM

Question: What about the TGI [40] of the same molecule?
Answer: > 100 µM

Question: What about the TGI [41] of the same molecule?
Answer: > 100 µM

Question: And the TGI [42]?
Answer: 66.6 µM

Question: What about the TGI [43] of the same molecule?
Answer: > 100 µM

Question: What about the TGI [44] of the same molecule?
Answer: > 100 µM

Question: What about the TGI [45] of the same molecule?
Answer: > 100 µM

Question: And the TGI [46]?
Answer: > 100 µM

Question: What about the TGI [47] of the same molecule?
Answer: > 100 µM

Question: And the TGI [48]?
Answer: > 100 µM

Question: What about the TGI [49] of the same molecule?
Answer: > 100 µM

Question: And the TGI [50]?
Answer: > 100 µM

Question: What about the TGI [51] of the same molecule?
Answer: > 100 µM

Question: What about the TGI [58] of the same molecule?
Answer: > 100 µM

Question: Which results are given for O=C(/C=C/C=C/c1c(C2CC2)nc2ccccc2c1-c1ccc(F)cc1)c1cccs1?
Answer: GI50 [53]: 1.67 µM; TGI [53]: 3.58 µM; GI50 [1]: 3.99 µM; TGI [1]: > 100 µM; GI50 [2]: 2.46 µM; TGI [2]: > 100 µM; GI50 [3]: 1.06 µM; TGI [3]: 3.92 µM; GI50 [4]: 2.62 µM; TGI [4]: > 100 µM; GI50 [5]: 3.68 µM; TGI [5]: > 100 µM; GI50 [6]: 1.37 µM; TGI [6]: > 100 µM; GI50 [7]: 2.76 µM; TGI [7]: > 100 µM; GI50 [10]: 1.59 µM; TGI [10]: 5.07 µM; GI50 [11]: 4.58 µM; TGI [11]: 32.9 µM; GI50 [12]: 1.46 µM; TGI [12]: 6.64 µM; GI50 [55]: 1.83 µM; TGI [55]: 8.6 µM; GI50 [14]: 3.72 µM; TGI [14]: > 100 µM; GI50 [16]: 1.59 µM; TGI [16]: > 100 µM; GI50 [17]: 1.5 µM; TGI [17]: 3.49 µM; GI50 [18]: 1.74 µM; TGI [18]: 6.14 µM; GI50 [56]: 1.5 µM; TGI [56]: 4.99 µM; GI50 [20]: 1.64 µM; TGI [20]: 14.7 µM; GI50 [22]: 3.09 µM; TGI [22]: > 100 µM; GI50 [23]: 2.25 µM; TGI [23]: > 100 µM; GI50 [24]: 1.97 µM; TGI [24]: 6.22 µM; GI50 [25]: 2.35 µM; TGI [25]: > 100 µM; GI50 [26]: 1.58 µM; TGI [26]: 5.48 µM; GI50 [27]: 9.44 µM; TGI [27]: > 100 µM; GI50 [28]: 3.58 µM; TGI [28]: > 100 µM; GI50 [29]: 1.67 µM; TGI [29]: 11.8 µM; GI50 [30]: 2.74 µM; TGI [30]: 7.25 µM; GI50 [31]: 2.39 µM; TGI [31]: 6.65 µM; GI50 [32]: 2.52 µM; TGI [32]: 9.09 µM; GI50 [57]: 1.79 µM; TGI [57]: 8.05 µM; GI50 [34]: 1.16 µM; TGI [34]: 3.05 µM; GI50 [35]: 1.49 µM; TGI [35]: 5.47 µM; GI50 [36]: 0.467 µM; TGI [36]: > 100 µM; GI50 [37]: 1 µM; TGI [37]: > 100 µM; GI50 [39]: 1.95 µM; TGI [39]: 5.97 µM; GI50 [40]: 3.35 µM; TGI [40]: > 100 µM; GI50 [41]: 1.34 µM; TGI [41]: 3.86 µM; GI50 [43]: 1.14 µM; TGI [43]: 3.31 µM; GI50 [44]: 3.57 µM; TGI [44]: > 100 µM; GI50 [45]: 0.718 µM; TGI [45]: 65.6 µM; GI50 [47]: 1.9 µM; TGI [47]: 5.4 µM; GI50 [48]: 1.34 µM; TGI [48]: 2.74 µM; GI50 [49]: 2.58 µM; TGI [49]: > 100 µM; GI50 [50]: 1.99 µM; TGI [50]: 4.95 µM; GI50 [52]: > 100 µM; TGI [52]: > 100 µM; GI50 [58]: 4.05 µM; TGI [58]: > 100 µM
